The source of these data is publication PMC7721913 (The Journal of Cell Biology, 2020).

Like-named read-outs stand apart in the source and are kept apart here. Ends that are not written are not given here.

In assay [1] the target is KLC1 TPR1-6. Particulars: cited from earlier work.
Assay [2] addresses KLC1 TPR1-6 fragment (KLC1: 205-501) (Homo sapiens, UniProt Q07866). The assay is described as follows: ITC binding of SFPQ peptides to KLC1.
For assay [3], the system named is SFPQ. The assay is described as follows: Coimmunoprecipitation of endogenous SFPQ from DRG lysate, Western blot. In kind it is binding, rat. The settings on record: DRG sensory neuron lysate.

Chain of KLC1 TPR1-6 fragment (KLC1: 205-501) (Q07866 205-501): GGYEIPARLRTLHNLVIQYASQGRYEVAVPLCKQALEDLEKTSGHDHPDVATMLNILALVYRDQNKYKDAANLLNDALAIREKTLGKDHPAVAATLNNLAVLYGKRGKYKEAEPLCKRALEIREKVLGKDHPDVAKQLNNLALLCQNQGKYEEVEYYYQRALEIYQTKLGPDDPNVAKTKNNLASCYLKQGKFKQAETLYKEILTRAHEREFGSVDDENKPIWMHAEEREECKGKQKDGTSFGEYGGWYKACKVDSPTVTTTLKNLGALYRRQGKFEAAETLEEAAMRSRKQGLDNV

For EYTCPTEDIYLE [JIP1: EYTCPTEDIYLE], in assay [1] (KLC1: 228-495, ref Zhu et al., 2012), the Kd was 9.4 ± 5.85 µM.
Regarding ESEMEDAAHEHQANLLR [SFPQ^Y527A peptide], the “binding to KLC1 (in words)” value in assay [2] (ITC, 25°C, pH 7.5) is recorded as “did not bind to KLC1”. The ΔS entry in assay [2] (ITC, 20 mM Hepes (pH 7.5), 150 mM NaCl, 0.5 mM TCEP, 2% DMSO, 25°C) was “No binding”. The ΔH result in assay [2] (ITC, 20 mM Hepes (pH 7.5), 150 mM NaCl, 0.5 mM TCEP, 2% DMSO, 25°C, single-site model) was “No binding”.
On to “KIF3A: kinesin transporting RNA granules in neurons”, for which, in assay [3], the “coimmunoprecipitation with SFPQ (in words)” value is recorded as “none of these kinesins significantly coimmunoprecipitates with SFPQ”.
Consider ESEMEDAYHEHQANLLR [WT SFPQ peptide], for which binding in assay [2] was put at a Kd of 3.83 ± 2.31 µM.
Turning to TCPTEDIYLE [JIP1: TCPTEDIYLE], the Kd in assay [1] (KLC1: 205-502, ref Nguyen et al., 2018) was 5 ± 0.5 µM.
For “KIF1A: axonal transport motor protein in DRGs”, the “coimmunoprecipitation with SFPQ (in words)” value in assay [3] is “none of these kinesins significantly coimmunoprecipitates with SFPQ”.
